One block for each molecule: values may come before it. Active and inactive are the calls of the source. The calls are words filed in the database; no cut-off is given here.
Legend:
[1] = Aggregation property of the compound in D2O/DMSO at 100 uM by 1H-WaterLOGSY NMR analysis; type: physicochemical
[2] = Binding affinity to HRAS-1 Y i-motif DNA (unknown origin) in pH 6 tris-acetate buffer assessed as confirmational change at 10 to 50 uM by circular dichroism analysis
[3] = Binding affinity to HRAS-1 Y i-motif DNA (unknown origin) in pH 8 D2O/DMSO at 100 uM by 1H-WaterLOGSY NMR analysis
[4] = Binding affinity to HRAS-1 Y i-motif DNA (unknown origin) in pH 6 D2O/DMSO assessed as chemical shift perturbation in Watson-Crick imino proton at 12.5 to 14 ppm up to 150 uM by NMR analysis
[5] = Binding affinity to 5'-AlexaFluor 647-labelled HRAS-1 Y i-motif DNA (unknown origin) by fluorescence titration method
[6] = Binding affinity to HRAS-1 Y i-motif DNA (unknown origin) in pH 6 D2O/DMSO at 100 uM by 1H-WaterLOGSY NMR analysis
[7] = Binding affinity to 5'-biotin-labelled HRAS-1 Y i-motif DNA (unknown origin) by surface plasmon resonance analysis
[8] = Binding affinity to HRAS-1 Y i-motif DNA (unknown origin) in pH 6 D2O/DMSO assessed as chemical shift perturbation at 7 to 12 ppm up to 150 uM by NMR analysis
[9] = Binding affinity to 5'-ATTO/3'-TAMRA labelled HRAS-1 Y i-motif DNA (unknown origin) up to 252 uM after 10 mins by FRET assay
[10] = Binding affinity to 5'-AlexaFluor 647-labelled HRAS-1 Y i-motif DNA (unknown origin) after 1 hr by fluorescence assay
[11] = Binding affinity to HRAS-1 Y i-motif DNA (unknown origin) in pH 6 D2O/DMSO assessed as chemical shift perturbation in i-motif imino proton at 15 to 16 ppm up to 150 uM by NMR analysis
[12] = Binding affinity to HRAS-1 Y i-motif DNA (unknown origin) assessed as change in melting temperature by thermal denaturation study
[13] = Binding affinity to HRAS-1 Y i-motif DNA (unknown origin) in D2O/DMSO at 100 uM by 1H-WaterLOGSY NMR analysis

Compound: CC(c1ccc(-c2cc(NCCO)nc(N)n2)cc1)N1CCCC1 (stereo not given)
- Activity [1]: Not Active
- Activity [2]: Active
- Activity [3]: inactive
- Activity [4]: inactive
- Kd [5]: 1.6 µM
- Activity [6]: Active
- Kd [7]: 7.4 µM
- Activity [8]: inactive
- Activity [9]: inactive
- Activity [10]: Active
- Activity [11]: Active
- Activity [12]: inactive
- Activity [13]: Active

Compound: CC(c1ccc(-c2cc(N3CCOCC3)nc(N)n2)cc1)C(C)N1CCCC1 (stereo not given)
- Kd [5]: 90.7 µM
- Kd [7]: 149 µM

Compound: COc1ccc(CCCNc2nc(N)nc3c2CCNCC3)cc1OC
- Kd [5]: 30.8 µM
- Kd [7]: 78 µM

Compound: CC(c1ccc(-c2cc(N3CCCC3)nc(N)n2)cc1)N(C)C (stereo not given)
- Kd [5]: 106 µM
- Kd [7]: > 300 µM

Compound: COc1cc(-c2ccc(C(C)N3CCCCC3)cc2)nc(N)n1 (stereo not given)
- Kd [5]: 254 µM
- Kd [7]: 51 µM

Compound: COc1cc(-c2ccc(C(C)N3CCCC3)cc2)nc(N)n1 (stereo not given)
- Kd [5]: > 209 µM
- Kd [7]: > 300 µM

Compound: COc1cc(N2CCCC(N(C)CCc3ccc(OC)c(OC)c3)C2)ncn1 (stereo not given)
- Kd [5]: 0.6 µM
- Kd [7]: 0.2 µM

Compound: NCCn1cc(C(=O)NC2CCCN(Cc3cccc(O)c3)C2)nn1 (stereo not given)
- Kd [5]: > 209 µM
- Kd [7]: 243 µM

Second part, the molecule after the results:

- Kd [5]: 50.4 µM
- Kd [7]: > 300 µM
Compound: COc1ccc(CCN(C)C2CCCN(c3ccnc(N(C)C)n3)C2)cc1OC (stereo not given)

- Kd [5]: 3 µM
- Kd [7]: 0.3 µM
Compound: COc1ccc(CCN(C)C2CCCN(c3ccnc(C)n3)C2)cc1OC (stereo not given)

- Activity [2]: inactive
- Activity [3]: inactive
- Activity [4]: Active
- Kd [5]: 35.6 µM
- Activity [6]: Active
- Kd [7]: 5.9 µM
- Activity [8]: Active
- Activity [10]: Active
- Activity [11]: inactive
- Activity [12]: inactive
Compound: COc1ccc(CCN(C)C2CCCN(c3ccnc(N)n3)C2)cc1OC (stereo not given)

- Kd [5]: > 209 µM
- Kd [7]: > 300 µM
Compound: Nc1nccc(N2CCCC(CCc3ccccc3)C2)n1 (stereo not given)

- Kd [5]: 16 µM
- Kd [7]: 11.6 µM
Compound: COc1ccc(CCN(C)C2CCCN(c3cc(C)nc(N)n3)C2)cc1OC (stereo not given)
